Columns and labels:
Experiment in all cases: KINOMEscan scanMAX
Format in all cases: binding
BMPR1B = target: T1, BMPR1B (Homo sapiens, UniProt O00238); settings: read-out: Percent Control
T1 construct: purchased Eurofins Discovery (DiscoverX KINOMEscan scanMAX)
Procedure: (§1) The kinome-wide binding assay was performed by Eurofins Discovery using the scanMAX screening platform. More information can be found on the Eurofins Discovery Web site.

ACVR1 = target: T2, ACVR1 (Homo sapiens, UniProt Q04771); settings: read-out: Percent Control
T2 construct: purchased Eurofins Discovery (DiscoverX KINOMEscan scanMAX)
Procedure: as §1

ERK1 = target: T3, ERK1 (Homo sapiens, UniProt P27361); settings: read-out: Percent Control
T3 construct: purchased Eurofins Discovery (DiscoverX KINOMEscan scanMAX)
Procedure: as §1

ROCK1 = target: T4, ROCK1 (Homo sapiens, UniProt Q13464); settings: read-out: Percent Control
T4 construct: purchased Eurofins Discovery (DiscoverX KINOMEscan scanMAX)
Procedure: as §1

BTK = target: T5, BTK (Homo sapiens, UniProt Q06187); settings: read-out: Percent Control
T5 construct: purchased Eurofins Discovery (DiscoverX KINOMEscan scanMAX)
T5 sequence (Q06187 whole entry): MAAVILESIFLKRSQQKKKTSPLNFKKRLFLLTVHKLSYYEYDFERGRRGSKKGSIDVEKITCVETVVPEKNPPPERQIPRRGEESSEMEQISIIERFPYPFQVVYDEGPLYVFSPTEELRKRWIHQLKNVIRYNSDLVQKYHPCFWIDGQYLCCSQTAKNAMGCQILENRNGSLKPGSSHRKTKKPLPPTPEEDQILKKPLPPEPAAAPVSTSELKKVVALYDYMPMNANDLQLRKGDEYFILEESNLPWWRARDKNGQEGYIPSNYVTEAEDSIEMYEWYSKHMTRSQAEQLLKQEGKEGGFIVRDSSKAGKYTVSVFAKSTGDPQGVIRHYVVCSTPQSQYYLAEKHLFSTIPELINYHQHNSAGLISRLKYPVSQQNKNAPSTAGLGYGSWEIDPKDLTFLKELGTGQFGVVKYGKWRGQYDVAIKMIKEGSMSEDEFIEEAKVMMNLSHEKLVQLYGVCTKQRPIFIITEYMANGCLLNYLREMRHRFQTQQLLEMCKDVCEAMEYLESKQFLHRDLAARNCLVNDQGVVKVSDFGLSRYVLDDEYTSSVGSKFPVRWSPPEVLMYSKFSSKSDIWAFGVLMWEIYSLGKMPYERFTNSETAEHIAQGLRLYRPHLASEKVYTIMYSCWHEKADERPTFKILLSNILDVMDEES
Procedure: as §1

SRMS = target: T6, SRMS (Homo sapiens, UniProt Q9H3Y6); settings: read-out: Percent Control
T6 construct: purchased Eurofins Discovery (DiscoverX KINOMEscan scanMAX)
T6 sequence (Q9H3Y6 whole entry): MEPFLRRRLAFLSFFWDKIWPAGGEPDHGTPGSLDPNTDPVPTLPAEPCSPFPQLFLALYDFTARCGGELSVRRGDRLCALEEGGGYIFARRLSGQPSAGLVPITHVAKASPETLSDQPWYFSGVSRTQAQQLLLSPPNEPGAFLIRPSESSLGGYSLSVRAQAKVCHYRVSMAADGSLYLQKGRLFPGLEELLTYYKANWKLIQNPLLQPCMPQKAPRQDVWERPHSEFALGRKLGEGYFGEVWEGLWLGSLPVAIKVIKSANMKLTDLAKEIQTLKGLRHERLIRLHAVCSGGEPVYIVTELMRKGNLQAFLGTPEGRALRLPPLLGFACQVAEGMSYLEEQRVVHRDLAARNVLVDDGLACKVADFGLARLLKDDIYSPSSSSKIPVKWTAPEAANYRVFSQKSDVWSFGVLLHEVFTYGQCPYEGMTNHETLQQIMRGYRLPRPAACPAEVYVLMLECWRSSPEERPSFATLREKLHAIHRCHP
Procedure: as §1

PLK2 = target: T7, PLK2 (Homo sapiens, UniProt Q9NYY3); settings: read-out: Percent Control
T7 construct: purchased Eurofins Discovery (DiscoverX KINOMEscan scanMAX)
T7 sequence (Q9NYY3 whole entry): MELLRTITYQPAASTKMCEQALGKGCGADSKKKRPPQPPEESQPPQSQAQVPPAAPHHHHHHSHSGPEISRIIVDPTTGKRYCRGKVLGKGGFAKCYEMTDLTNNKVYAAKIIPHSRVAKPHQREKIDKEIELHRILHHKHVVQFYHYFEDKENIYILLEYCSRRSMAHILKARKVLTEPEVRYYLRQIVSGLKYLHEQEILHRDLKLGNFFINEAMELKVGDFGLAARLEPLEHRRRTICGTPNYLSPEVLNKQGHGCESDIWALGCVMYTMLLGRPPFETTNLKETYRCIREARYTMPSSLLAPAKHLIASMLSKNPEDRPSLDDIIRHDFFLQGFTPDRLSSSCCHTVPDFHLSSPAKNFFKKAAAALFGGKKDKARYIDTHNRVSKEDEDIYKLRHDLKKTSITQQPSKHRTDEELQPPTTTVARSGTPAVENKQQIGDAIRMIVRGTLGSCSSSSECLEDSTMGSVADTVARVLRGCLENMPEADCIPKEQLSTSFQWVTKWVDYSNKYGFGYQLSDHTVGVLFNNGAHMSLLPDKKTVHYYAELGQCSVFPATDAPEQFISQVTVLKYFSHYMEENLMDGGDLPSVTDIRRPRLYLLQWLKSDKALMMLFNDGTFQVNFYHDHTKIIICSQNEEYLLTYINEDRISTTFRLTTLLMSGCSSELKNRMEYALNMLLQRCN
Procedure: as §1

MARK3 = target: T8, MARK3 (Homo sapiens, UniProt P27448); settings: read-out: Percent Control
T8 construct: purchased Eurofins Discovery (DiscoverX KINOMEscan scanMAX)
T8 sequence (P27448 whole entry): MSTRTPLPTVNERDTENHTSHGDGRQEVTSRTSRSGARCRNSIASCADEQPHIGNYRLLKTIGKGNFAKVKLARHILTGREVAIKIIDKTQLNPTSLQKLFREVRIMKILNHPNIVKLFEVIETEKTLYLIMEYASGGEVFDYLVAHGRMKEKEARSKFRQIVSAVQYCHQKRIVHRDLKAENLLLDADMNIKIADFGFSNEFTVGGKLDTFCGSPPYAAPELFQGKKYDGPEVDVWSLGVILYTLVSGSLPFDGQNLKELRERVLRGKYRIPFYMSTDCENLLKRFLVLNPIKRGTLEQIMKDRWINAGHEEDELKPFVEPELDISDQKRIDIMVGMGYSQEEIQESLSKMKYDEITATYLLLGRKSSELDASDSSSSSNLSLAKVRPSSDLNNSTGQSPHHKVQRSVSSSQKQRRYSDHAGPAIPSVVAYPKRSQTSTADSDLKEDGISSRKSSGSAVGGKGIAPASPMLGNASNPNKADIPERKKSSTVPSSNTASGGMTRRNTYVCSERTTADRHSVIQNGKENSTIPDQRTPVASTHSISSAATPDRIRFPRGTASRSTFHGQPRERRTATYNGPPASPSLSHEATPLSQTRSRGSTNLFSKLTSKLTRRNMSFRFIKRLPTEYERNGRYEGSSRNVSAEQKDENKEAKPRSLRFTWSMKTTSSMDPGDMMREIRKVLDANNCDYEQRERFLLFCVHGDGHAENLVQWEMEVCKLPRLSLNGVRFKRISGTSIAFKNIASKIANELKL
Procedure: as §1

[1] = target: T9, RSK1(Kin.Dom.1-N-terminal) (Homo sapiens, UniProt Q15418); settings: read-out: Percent Control
T9 construct: RSK1(Kin.Dom.1-N-terminal); purchased Eurofins Discovery (DiscoverX KINOMEscan scanMAX)
Procedure: as §1

TAOK2 = target: T10, TAOK2 (Homo sapiens, UniProt Q9UL54); settings: read-out: Percent Control
T10 construct: purchased Eurofins Discovery (DiscoverX KINOMEscan scanMAX)
Procedure: as §1

FLT3(ITD,F691L) = test system: FLT3(ITD,F691L)
Procedure: as §1

DAPK1 = target: T11, DAPK1 (Homo sapiens, UniProt P53355); settings: read-out: Percent Control
T11 construct: purchased Eurofins Discovery (DiscoverX KINOMEscan scanMAX)
Procedure: as §1

SIK2 = target: T12, SIK2 (Homo sapiens, UniProt Q9H0K1); settings: read-out: Percent Control
T12 construct: purchased Eurofins Discovery (DiscoverX KINOMEscan scanMAX)
Procedure: as §1

PCTK3 = target: T13, PCTK3 (Homo sapiens, UniProt Q07002); settings: read-out: Percent Control
T13 construct: purchased Eurofins Discovery (DiscoverX KINOMEscan scanMAX)
Procedure: as §1

CDC2L1 = target: T14, CDC2L1 (Homo sapiens, UniProt P21127); settings: read-out: Percent Control
T14 construct: purchased Eurofins Discovery (DiscoverX KINOMEscan scanMAX)
Procedure: as §1

SgK110 = target: T15, SgK110 (Homo sapiens, UniProt P0C264); settings: read-out: Percent Control
T15 construct: purchased Eurofins Discovery (DiscoverX KINOMEscan scanMAX)
Procedure: as §1

YANK3 = target: T16, YANK3 (Homo sapiens, UniProt Q86UX6); settings: read-out: Percent Control
T16 construct: purchased Eurofins Discovery (DiscoverX KINOMEscan scanMAX)
Procedure: as §1

MTOR = target: T17, MTOR (Homo sapiens, UniProt P42345); settings: read-out: Percent Control
T17 construct: purchased Eurofins Discovery (DiscoverX KINOMEscan scanMAX)
Procedure: as §1

PFTAIRE2 = target: T18, PFTAIRE2 (Homo sapiens, UniProt Q96Q40); settings: read-out: Percent Control
T18 construct: purchased Eurofins Discovery (DiscoverX KINOMEscan scanMAX)
Procedure: as §1

PIM1 = target: T19, PIM1 (Homo sapiens, UniProt P11309); settings: read-out: Percent Control
T19 construct: purchased Eurofins Discovery (DiscoverX KINOMEscan scanMAX)
T19 sequence (P11309 whole entry): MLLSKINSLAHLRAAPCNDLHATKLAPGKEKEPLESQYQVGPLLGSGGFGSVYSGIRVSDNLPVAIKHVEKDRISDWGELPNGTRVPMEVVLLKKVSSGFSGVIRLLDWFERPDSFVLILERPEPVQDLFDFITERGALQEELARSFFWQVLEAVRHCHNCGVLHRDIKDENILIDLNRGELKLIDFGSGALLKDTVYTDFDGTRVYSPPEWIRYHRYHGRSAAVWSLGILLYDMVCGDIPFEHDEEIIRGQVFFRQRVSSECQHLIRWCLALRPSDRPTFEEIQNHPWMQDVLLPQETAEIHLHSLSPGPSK
Procedure: as §1

ABL1-phosphorylated = target: T20, ABL1-phosphorylated (Homo sapiens, UniProt P00519); settings: read-out: Percent Control
T20 construct: purchased Eurofins Discovery (DiscoverX KINOMEscan scanMAX)
Procedure: as §1

PYK2 = target: T21, PYK2 (Homo sapiens, UniProt Q14289); settings: read-out: Percent Control
T21 construct: purchased Eurofins Discovery (DiscoverX KINOMEscan scanMAX)
T21 sequence (Q14289 whole entry): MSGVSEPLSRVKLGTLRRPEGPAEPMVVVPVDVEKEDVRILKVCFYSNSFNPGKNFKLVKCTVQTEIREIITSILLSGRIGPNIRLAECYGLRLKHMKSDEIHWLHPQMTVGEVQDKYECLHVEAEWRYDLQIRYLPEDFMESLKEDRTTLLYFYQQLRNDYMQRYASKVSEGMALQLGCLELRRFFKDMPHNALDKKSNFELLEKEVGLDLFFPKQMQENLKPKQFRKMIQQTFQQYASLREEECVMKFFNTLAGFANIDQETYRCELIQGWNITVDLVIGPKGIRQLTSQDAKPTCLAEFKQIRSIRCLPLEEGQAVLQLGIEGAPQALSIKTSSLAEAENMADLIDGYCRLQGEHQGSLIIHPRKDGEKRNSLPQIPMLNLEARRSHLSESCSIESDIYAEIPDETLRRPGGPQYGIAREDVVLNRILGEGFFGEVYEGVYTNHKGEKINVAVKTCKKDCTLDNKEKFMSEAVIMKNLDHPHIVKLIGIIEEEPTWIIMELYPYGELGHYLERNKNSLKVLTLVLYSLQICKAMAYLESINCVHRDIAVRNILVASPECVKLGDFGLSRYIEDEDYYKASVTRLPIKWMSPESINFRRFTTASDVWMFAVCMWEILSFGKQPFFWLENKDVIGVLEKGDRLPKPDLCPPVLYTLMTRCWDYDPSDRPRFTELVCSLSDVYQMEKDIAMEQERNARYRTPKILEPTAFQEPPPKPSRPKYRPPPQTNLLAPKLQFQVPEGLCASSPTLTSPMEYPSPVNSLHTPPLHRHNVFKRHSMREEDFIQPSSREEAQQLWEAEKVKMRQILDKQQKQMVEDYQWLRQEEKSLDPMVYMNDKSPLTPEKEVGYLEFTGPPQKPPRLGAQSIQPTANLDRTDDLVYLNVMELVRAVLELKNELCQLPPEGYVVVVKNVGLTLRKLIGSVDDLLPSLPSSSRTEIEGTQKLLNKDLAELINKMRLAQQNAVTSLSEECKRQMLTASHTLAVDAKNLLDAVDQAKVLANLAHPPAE
Procedure: as §1

[2] = target: T22, RPS6KA4(Kin.Dom.2-C-terminal) (Homo sapiens, UniProt O75676); settings: read-out: Percent Control
T22 construct: RPS6KA4(Kin.Dom.2-C-terminal); purchased Eurofins Discovery (DiscoverX KINOMEscan scanMAX)
Procedure: as §1

PDGFRA = target: T23, PDGFRA (Homo sapiens, UniProt P16234); settings: read-out: Percent Control
T23 construct: purchased Eurofins Discovery (DiscoverX KINOMEscan scanMAX)
Procedure: as §1

LOK = target: T24, LOK (Homo sapiens, UniProt O94804); settings: read-out: Percent Control
T24 construct: purchased Eurofins Discovery (DiscoverX KINOMEscan scanMAX)
Procedure: as §1

LRRK2(G2019S) = target: T25, LRRK2(G2019S) (Homo sapiens, UniProt Q5S007, G2019S); settings: read-out: Percent Control
T25 construct: purchased Eurofins Discovery (DiscoverX KINOMEscan scanMAX)
Procedure: as §1

ADCK3 = target: T26, ADCK3 (Homo sapiens, UniProt Q8NI60); settings: read-out: Percent Control
T26 construct: purchased Eurofins Discovery (DiscoverX KINOMEscan scanMAX)
Procedure: as §1

MAP3K3 = target: T27, MAP3K3 (Homo sapiens, UniProt Q99759); settings: read-out: Percent Control
T27 construct: purchased Eurofins Discovery (DiscoverX KINOMEscan scanMAX)
T27 sequence (Q99759 whole entry): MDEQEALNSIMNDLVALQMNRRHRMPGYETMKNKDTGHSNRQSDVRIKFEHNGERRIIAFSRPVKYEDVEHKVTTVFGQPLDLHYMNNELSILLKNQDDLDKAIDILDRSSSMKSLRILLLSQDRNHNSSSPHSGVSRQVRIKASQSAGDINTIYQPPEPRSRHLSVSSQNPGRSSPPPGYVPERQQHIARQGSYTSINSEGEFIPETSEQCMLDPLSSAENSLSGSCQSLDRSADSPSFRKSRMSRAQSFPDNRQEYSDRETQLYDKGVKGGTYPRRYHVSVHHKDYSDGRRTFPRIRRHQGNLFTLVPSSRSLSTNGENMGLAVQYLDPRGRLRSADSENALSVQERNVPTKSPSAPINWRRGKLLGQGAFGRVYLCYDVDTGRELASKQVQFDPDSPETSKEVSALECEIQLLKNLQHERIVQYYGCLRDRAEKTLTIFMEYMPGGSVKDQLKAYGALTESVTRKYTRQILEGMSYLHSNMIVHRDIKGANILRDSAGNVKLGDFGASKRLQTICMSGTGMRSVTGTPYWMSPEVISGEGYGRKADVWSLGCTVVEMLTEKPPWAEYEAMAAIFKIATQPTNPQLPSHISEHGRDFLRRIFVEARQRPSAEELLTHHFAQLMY
Procedure: as §1

FLT3 = target: T28, FLT3 (Homo sapiens, UniProt P36888); settings: read-out: Percent Control
T28 construct: purchased Eurofins Discovery (DiscoverX KINOMEscan scanMAX)
Procedure: as §1

PKN1 = target: T29, PKN1 (Homo sapiens, UniProt Q16512); settings: read-out: Percent Control
T29 construct: purchased Eurofins Discovery (DiscoverX KINOMEscan scanMAX)
Procedure: as §1

LIMK1 = target: T30, LIMK1 (Homo sapiens, UniProt P53667); settings: read-out: Percent Control
T30 construct: purchased Eurofins Discovery (DiscoverX KINOMEscan scanMAX)
Procedure: as §1

BMPR1A = target: T31, BMPR1A (Homo sapiens, UniProt P36894); settings: read-out: Percent Control
T31 construct: purchased Eurofins Discovery (DiscoverX KINOMEscan scanMAX)
Procedure: as §1

[3] = target: T32, JAK1(JH2domain-pseudokinase) (Homo sapiens, UniProt P23458); settings: read-out: Percent Control
T32 construct: JAK1(JH2domain-pseudokinase); purchased Eurofins Discovery (DiscoverX KINOMEscan scanMAX)
T32 sequence (P23458 561-860 limits assumed): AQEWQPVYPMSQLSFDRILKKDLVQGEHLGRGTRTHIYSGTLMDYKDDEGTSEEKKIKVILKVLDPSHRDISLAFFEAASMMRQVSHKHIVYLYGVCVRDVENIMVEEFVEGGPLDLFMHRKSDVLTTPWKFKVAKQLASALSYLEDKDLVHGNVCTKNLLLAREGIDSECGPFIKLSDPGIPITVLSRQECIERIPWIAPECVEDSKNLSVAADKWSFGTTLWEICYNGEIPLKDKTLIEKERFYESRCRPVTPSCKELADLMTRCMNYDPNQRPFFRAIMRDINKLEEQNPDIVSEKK
Procedure: as §1

## Cc1cc(Nc2ccc(F)c(CC3(C(=O)N4CCC(F)(CN5CCN(c6ccc(N7CCC(=O)NC7=O)cn6)CC5)CC4)CCN(Cc4cccc(Cl)c4F)CC3)n2)n[nH]1 [SK5527]
BMPR1B; 100 nM
  remaining binding at 0.1 µM: 77%
BMPR1B; 1000 nM
  remaining binding at 1 µM: 72%
ACVR1; 100 nM
  remaining binding at 0.1 µM: 68%
ACVR1; 1000 nM
  remaining binding at 1 µM: 70%
ERK1; 100 nM
  remaining binding at 0.1 µM: 94%
ERK1; 1000 nM
  remaining binding at 1 µM: 94%
ROCK1; 100 nM
  remaining binding at 0.1 µM: 96%
ROCK1; 1000 nM
  remaining binding at 1 µM: 81%
BTK; 100 nM
  remaining binding at 0.1 µM: 88%
BTK; 1000 nM
  remaining binding at 1 µM: 80%
SRMS; 100 nM
  remaining binding at 0.1 µM: 90%
SRMS; 1000 nM
  remaining binding at 1 µM: 82%
PLK2; 100 nM
  remaining binding at 0.1 µM: 100%
PLK2; 1000 nM
  remaining binding at 1 µM: 87%
MARK3; 100 nM
  remaining binding at 0.1 µM: 100%
MARK3; 1000 nM
  remaining binding at 1 µM: 87%
[1]; 100 nM
  remaining binding at 0.1 µM: 100%
[1]; 1000 nM
  remaining binding at 1 µM: 100%
TAOK2; 100 nM
  remaining binding at 0.1 µM: 100%
TAOK2; 1000 nM
  remaining binding at 1 µM: 100%
FLT3(ITD,F691L); 100 nM
  Percent Control: 100%
FLT3(ITD,F691L); 1000 nM
  Percent Control: 75%
DAPK1; 100 nM
  remaining binding at 0.1 µM: 85%
DAPK1; 1000 nM
  remaining binding at 1 µM: 81%
SIK2; 100 nM
  remaining binding at 0.1 µM: 100%
SIK2; 1000 nM
  remaining binding at 1 µM: 93%
PCTK3; 100 nM
  remaining binding at 0.1 µM: 91%
PCTK3; 1000 nM
  remaining binding at 1 µM: 84%
CDC2L1; 100 nM
  remaining binding at 0.1 µM: 98%
CDC2L1; 1000 nM
  remaining binding at 1 µM: 95%
SgK110; 100 nM
  remaining binding at 0.1 µM: 100%
SgK110; 1000 nM
  remaining binding at 1 µM: 89%
YANK3; 100 nM
  remaining binding at 0.1 µM: 86%
YANK3; 1000 nM
  remaining binding at 1 µM: 80%
MTOR; 100 nM
  remaining binding at 0.1 µM: 100%
MTOR; 1000 nM
  remaining binding at 1 µM: 100%
PFTAIRE2; 100 nM
  remaining binding at 0.1 µM: 75%
PFTAIRE2; 1000 nM
  remaining binding at 1 µM: 80%
PIM1; 100 nM
  remaining binding at 0.1 µM: 100%
PIM1; 1000 nM
  remaining binding at 1 µM: 99%
ABL1-phosphorylated; 100 nM
  remaining binding at 0.1 µM: 67%
ABL1-phosphorylated; 1000 nM
  remaining binding at 1 µM: 48%
PYK2; 100 nM
  remaining binding at 0.1 µM: 91%
PYK2; 1000 nM
  remaining binding at 1 µM: 66%
[2]; 100 nM
  remaining binding at 0.1 µM: 85%
[2]; 1000 nM
  remaining binding at 1 µM: 77%
PDGFRA; 100 nM
  remaining binding at 0.1 µM: 92%
PDGFRA; 1000 nM
  remaining binding at 1 µM: 84%
LOK; 100 nM
  remaining binding at 0.1 µM: 100%
LOK; 1000 nM
  remaining binding at 1 µM: 100%
LRRK2(G2019S); 100 nM
  remaining binding at 0.1 µM: 73%
LRRK2(G2019S); 1000 nM
  remaining binding at 1 µM: 67%
ADCK3; 100 nM
  remaining binding at 0.1 µM: 100%
ADCK3; 1000 nM
  remaining binding at 1 µM: 99%
MAP3K3; 100 nM
  remaining binding at 0.1 µM: 100%
MAP3K3; 1000 nM
  remaining binding at 1 µM: 96%
FLT3; 100 nM
  remaining binding at 0.1 µM: 90%
FLT3; 1000 nM
  remaining binding at 1 µM: 77%
PKN1; 100 nM
  remaining binding at 0.1 µM: 100%
PKN1; 1000 nM
  remaining binding at 1 µM: 89%
LIMK1; 100 nM
  remaining binding at 0.1 µM: 88%
LIMK1; 1000 nM
  remaining binding at 1 µM: 96%
BMPR1A; 100 nM
  remaining binding at 0.1 µM: 100%
BMPR1A; 1000 nM
  remaining binding at 1 µM: 100%
[3]; 100 nM
  remaining binding at 0.1 µM: 94%
[3]; 1000 nM
  remaining binding at 1 µM: 86%
